The nature of one data set: in vitro. Particulars: human; for viability: cell viability (% of DMSO control).
Data set [1] relates to SARS-CoV-2-Nluc. The data set is described as follows: microbe, parasite or virus in culture. It is filed as cell-based. Particulars: Severe acute respiratory syndrome coronavirus 2, Vero C1008, 48 h.
Data set [2] has as its system SARS-CoV-2-Nluc. The data set is described as follows: microbe, parasite or virus in culture. Format: cell-based.
The nature of data set [3]: Cytotoxicity assay (CCK-8, 72 h) in Vero E6 cells. It is filed as cell-based, African green monkey. The note with it: African green monkey, Vero E6 cells; for viability at 72 h: Vero, two replicates, read-out: cell viability (% of DMSO control); for CC50 at 72 h: 3-day cytotoxicity.
The next data set deals with Vero E6 cells. The data set is described as follows: Cytotoxicity assay (CCK-8, 72 h) in Vero E6 cells. Format: cell-based, African green monkey. The note with it: Vero, two replicates.
In data set [4] the test system is COVID-19. Details: method as in PMID 32649078. The note with it: 1063 patients hospitalized with COVID-19; placebo group 15 days; cited from earlier work.
In data set [5] the test system is COVID-19. Details: method as in PMID 32392282. The note with it: >1400 patients, compared with no treatment; cited from earlier work.
[6] abbreviates: Severe acute respiratory syndrome coronavirus 2, 48 h.
[7] abbreviates: Severe acute respiratory syndrome coronavirus 2, read-out: EC50 (µM) Replicate 1.
The mark [8] stands for this setting: Severe acute respiratory syndrome coronavirus 2, read-out: EC50 (µM) Replicate 2.

“And” between values parts separate entries of the source, which are not always exact repeats. Equal values may be shown once. Read-outs that look alike come from different tables or passages of the source.

The viability is a read-out of living cells in per cent, often relative to untreated cells. What is called EC50 is the concentration that produces a half-maximal response.

As for `CCN(CC)CCCC(C)Nc1ccnc2cc(Cl)ccc12` (stereo not shown) [Chloroquine], the CC50 in the data set “in vitro” (CC50), in the data set “in vitro” (CC50 (µM) Replicate 1) and in “in vitro” (CC50 (µM) Replicate 2) was > 50 µM throughout. Also, the viability in the data set “in vitro” (Concentration 0.00152416) was determined as 105%; in “in vitro” (Concentration 0.00457247), 106%; in “in vitro” (Concentration 0.0137174) it was 103%; in “in vitro” (Concentration 0.0411523), 104%; in the data set “in vitro” (Concentration 0.123457) it was 105%; in the data set “in vitro” (Concentration 0.37037), 104%. Also, the figures for the viability in “in vitro” (Concentration 1.11111), in “in vitro” (Concentration 3.33333) and in the data set “in vitro” (Concentration 10) were 104%, 104% and 108%, respectively. Besides, the half-maximal effective concentration (EC50) was 3.52 µM in the data set with SARS-CoV-2-Nluc [1], 1.32 ± 0.36 µM with SARS-CoV-2-Nluc [2] (setting [6]), 1.06 µM in the data set on SARS-CoV-2-Nluc [2] (setting [7]) and 1.57 µM with SARS-CoV-2-Nluc [2] (setting [8]). The “cell viability (% of DMSO control)” value was 94.76% in the data set with A549-hACE2 cells (Concentration 0.00152416); 100.03% with A549-hACE2 cells (Concentration 0.00457247); 97.21% in the data set with A549-hACE2 cells (Concentration 0.0137174); 100.16% in the data set on A549-hACE2 cells (Concentration 0.0411523); 98.53% in the data set with A549-hACE2 cells (Concentration 0.123457); 99.78% with A549-hACE2 cells (Concentration 0.37037). Besides, the “cell viability (% of DMSO control)” value amounted to 100.72% with A549-hACE2 cells (Concentration 1.11111); 101.54% in the data set with A549-hACE2 cells (Concentration 3.33333); 101.98% in the data set with A549-hACE2 cells (Concentration 10); 109.35% in the data set on Vero E6 cells (Concentration 0.00152416); 115.44% in the data set with Vero E6 cells (Concentration 0.00457247); 94.62% in the data set on Vero E6 cells (Concentration 0.0137174). In addition, the “cell viability (% of DMSO control)” value in the data set with Vero E6 cells (Concentration 0.0411523) is 86.94% and 111.97%; with Vero E6 cells (Concentration 0.123457), 83.36%; in the data set with Vero E6 cells (Concentration 0.37037), 78.26%; with Vero E6 cells (Concentration 1.11111) it was 94.9%; in the data set with Vero E6 cells (Concentration 3.33333), 72.03%; in the data set with Vero E6 cells (Concentration 10), 73.87%. The viability at 72 h was determined as 112% in data set [3] (Concentration 0.00152416); 113% in data set [3] (Concentration 0.00457247); 100% in data set [3] (Concentration 0.0137174); 83.5% in data set [3] (Concentration 0.123457); 80.1% in data set [3] (Concentration 0.37037); 81.4% in data set [3] (Concentration 1.11111). Besides, the viability at 72 h in data set [3] (Concentration 3.33333) came out at 75.3%; in data set [3] (Concentration 10) it was 76.5%. The CC50 at 72 h in data set [3] was > 50 µM.
With `CCC(CC)COC(=O)[C@H](C)N[P@](=O)(OC[C@H]1O[C@@](C#N)(c2ccc3c(N)ncnn23)[C@H](O)[C@@H]1O)Oc1ccccc1` [Remdesivir], the CC50 in “in vitro” (CC50) came to 32.5 µM; in “in vitro” (CC50 (µM) Replicate 1), 29 µM; in “in vitro” (CC50 (µM) Replicate 2), 36.4 µM; in the data set on A549-hACE2 cells (human) it was 32.7 ± 5.2 µM. The viability in the data set “in vitro” (Concentration 0.00152416) is 100%; in “in vitro” (Concentration 0.00457247), 99.8%; in the data set “in vitro” (Concentration 0.0137174), 102%; in the data set “in vitro” (Concentration 0.0411523), 102%; in “in vitro” (Concentration 0.123457), 101%; in the data set “in vitro” (Concentration 0.37037) it was 96.9%. Besides, the results for the viability in the data set “in vitro” (Concentration 1.11111), in the data set “in vitro” (Concentration 3.33333) and in “in vitro” (Concentration 10) were 100%, 101% and 84.9%, respectively. Besides, the EC50 came out at 1.28 µM with SARS-CoV-2-Nluc [1], 0.115 ± 0.007 µM in the data set on SARS-CoV-2-Nluc [2] (setting [6]), 0.11 µM in the data set on SARS-CoV-2-Nluc [2] (setting [7]) and 0.12 µM in the data set with SARS-CoV-2-Nluc [2] (setting [8]). The recovery time in the data set with COVID-19 [4] is 11 days. The “cell viability (% of DMSO control)” value is given as 98.72% in the data set on A549-hACE2 cells (Concentration 0.00152416); 97.64% in the data set on A549-hACE2 cells (Concentration 0.00457247); 95.55% with A549-hACE2 cells (Concentration 0.0137174); 98.85% with A549-hACE2 cells (Concentration 0.0411523); 98.18% with A549-hACE2 cells (Concentration 0.123457); 92.18% with A549-hACE2 cells (Concentration 0.37037). The “cell viability (% of DMSO control)” value was found to be 95.21% in the data set on A549-hACE2 cells (Concentration 1.11111); 90.42% in the data set on A549-hACE2 cells (Concentration 3.33333); 87.86% in the data set on A549-hACE2 cells (Concentration 10); 98.69% in the data set on Vero E6 cells (Concentration 0.00152416); 100.09% in the data set with Vero E6 cells (Concentration 0.00457247); 99.13% in the data set with Vero E6 cells (Concentration 0.0137174). Moreover, the “cell viability (% of DMSO control)” value is listed as 93.89% in the data set on Vero E6 cells (Concentration 0.0411523); 91.88% with Vero E6 cells (Concentration 0.123457); 90.48% in the data set on Vero E6 cells (Concentration 0.37037); 90.39% with Vero E6 cells (Concentration 1.11111); 89.52% in the data set on Vero E6 cells (Concentration 3.33333); 70.92% in the data set with Vero E6 cells (Concentration 10). For the same molecule, the viability at 72 h in data set [3] (Concentration 0.00152416) worked out at 100%; in data set [3] (Concentration 0.00457247) it was 102%; in data set [3] (Concentration 0.0137174) it was 91.3%; in data set [3] (Concentration 0.0411523), 104%; in data set [3] (Concentration 0.123457) it was 80.3%; in data set [3] (Concentration 0.37037), 80.3%. For the same molecule, the viability at 72 h in data set [3] (Concentration 1.11111) stood at 102%; in data set [3] (Concentration 3.33333), 87.9%; in data set [3] (Concentration 10) it was 68%. For the same molecule, in data set [3], the CC50 at 72 h is > 50 µM.
For the molecule `CC[C@H]1OC(=O)[C@H](C)[C@@H](O[C@H]2C[C@@](C)(OC)[C@@H](O)[C@H](C)O2)[C@H](C)[C@@H](O[C@@H]2O[C@H](C)C[C@H](N(C)C)[C@H]2O)[C@](C)(O)C[C@@H](C)CN(C)[C@H](C)[C@@H](O)[C@]1(C)O` [azithromycin], the “association of treatment with fatality rate among hospitalized patients” value with COVID-19 [5] is listed as “not associated with significant differences in fatality rate”.
Take `CCN(CCO)CCCC(C)Nc1ccnc2cc(Cl)ccc12` (stereo not shown) [hydroxychloroquine]: in the data set with COVID-19 [5], the “association of treatment with fatality rate among hospitalized patients” value was “not associated with significant differences in fatality rate”.

Values taken from PMC7567097, “A nanoluciferase SARS-CoV-2 for rapid neutralization testing and screening of anti-infective drugs for COVID-19” (Nature Communications, 2020).
